Test results as given in patent US8815796B2, “Polyheterocyclic compounds highly potent as HCV inhibitors” (AB Pharma Ltd., priority 2010, dated 2014).
Where two headings read alike, the source gives them in different places.

Target: T1, HCV NS3-4A protease (Hepatitis C virus genotype 1a, UniProt P27958)
T1 construct: HCV NS3-4A protease
Test: HCV NS3-4A protease assay in vitro (FRET-S substrate)
Type: biochemical
Description: HCV NS3-4A Protease Assay In Vitro.
The assay was conducted in Buffer A containing 30 mM NaCl, 5 mM CaCl2, 10 mM DTT, 50 mM Tris (pH7.8), using the Ac-Asp-Glu-Asp(EDANS)-Glu-Glu-Abu-ψ-[COO]-Ala-Ser-Lys (DABCYL)-NH2 (FRET-S) fluorescent peptide (AnaSpec, USA) as substrate. Briefly, 140 μL buffer A, 20 μL compounds dissolved in buffer A with different concentration and 20 μL HCV NS3-4A protease diluted in buffer A were added into 96-well plate respectively and mixed well. The reaction was initiate with adding 20 μL of FRET-S. Reactions were continuously monitored at 37° C. using a BMG Polarstar Galaxy (MTX Lab Systems, Inc. USA), with excitation and emission filters of 355 nm and 520 nm, respectively. The 50% inhibitory concentration (IC50) was calculated with Reed & Muench methods.

[1] = HCV NS3-4A protease inhibition, 37° C., class symbols, read-out: NS3-NS4A IC50

T1 sequence (P27958 1027-1657): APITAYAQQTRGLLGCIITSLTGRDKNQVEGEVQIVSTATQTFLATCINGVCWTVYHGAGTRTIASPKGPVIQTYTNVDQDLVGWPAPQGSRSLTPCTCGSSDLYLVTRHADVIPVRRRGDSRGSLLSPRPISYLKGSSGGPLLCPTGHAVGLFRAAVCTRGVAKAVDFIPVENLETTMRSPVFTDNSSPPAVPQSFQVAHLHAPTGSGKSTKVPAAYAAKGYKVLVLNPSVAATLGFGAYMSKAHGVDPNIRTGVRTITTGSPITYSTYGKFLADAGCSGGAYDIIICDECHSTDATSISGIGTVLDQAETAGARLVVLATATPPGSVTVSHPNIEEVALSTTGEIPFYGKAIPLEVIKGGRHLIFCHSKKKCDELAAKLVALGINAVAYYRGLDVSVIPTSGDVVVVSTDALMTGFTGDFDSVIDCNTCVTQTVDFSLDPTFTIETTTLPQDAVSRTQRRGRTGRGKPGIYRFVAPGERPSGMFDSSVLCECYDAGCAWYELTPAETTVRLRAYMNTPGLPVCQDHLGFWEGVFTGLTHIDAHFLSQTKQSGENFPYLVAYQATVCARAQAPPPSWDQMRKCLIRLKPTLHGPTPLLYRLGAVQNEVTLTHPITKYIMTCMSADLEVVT
T1 sequence (P27958 1658-1711): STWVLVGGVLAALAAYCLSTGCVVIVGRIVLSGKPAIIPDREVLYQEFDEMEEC

| SMILES | IC50 [1] [nM] | IC50 [nM] |
| --- | --- | --- |
| CC(C)(C)OC(=O)N[C@H]1CCCCC/C=C\[C@@H]2C[C@@]2(C(=O)NS(=O)(=O)C2CC2)NC(=O)[C@@H]2C[C@@H](OC(=O)N3Cc4cccc(F)c4C3)CN2C1=O [Compound 12-Ref, reference compound] | < 30 | – |
| C=C[C@H]1C[C@@]1(NC(=O)C1C[C@@H](OC(=O)N2Cc3cc4c(cc3C2)OCCCO4)CN1C(=O)[C@@H](NC(=O)[C@@H](NC(=O)c1cnccn1)C1CCCCC1)C(C)(C)C)C(=O)NS(=O)(=O)C1CC1 (stereo partly shown) [Compound 30g] | – | < 30 |
| CCC[C@H](NC(=O)C1C[C@@H](OC(=O)N2Cc3ccc4c(c3C2)OCCO4)CN1C(=O)[C@@H](NC(=O)[C@@H](NC(=O)c1cnccn1)C1CCCCC1)C(C)(C)C)C(=O)C(=O)NC1CC1 (stereo partly shown) [Compound 33d] | – | > 200 |
| C=C[C@H]1C[C@@]1(NC(=O)C1C[C@@H](OC(=O)N2Cc3ccc4c(c3C2)OCO4)CN1C(=O)[C@@H](NC(=O)OC(C)(C)C)C(C)(C)C)C(=O)NS(=O)(=O)C1CC1 (stereo partly shown) [Compound 30ah] | < 30 | – |
| CCOC(=O)N[C@H](C(=O)N[C@H](C(=O)N1C[C@H](OC(=O)N2Cc3cc4c(cc3C2)OCO4)CC1C(=O)N[C@@]1(C(=O)NS(=O)(=O)C2CC2)C[C@@H]1CC)C(C)(C)C)C1CCCCC1 (stereo partly shown) [Compound 30v] | – | < 30 |
| CC(C)(C)OC(=O)N[C@H]1CCCCC/C=C\[C@@H]2C[C@@]2(C(=O)NS(=O)(=O)C2CC2)NC(=O)[C@@H]2C[C@@H](OC(=O)N3Cc4cc5c(cc4C3)OCCO5)CN2C1=O [Compound 12c] | < 30 | – |
| C=C[C@H]1C[C@@]1(NC(=O)C1C[C@@H](OC(=O)N2Cc3cc4c(cc3C2)OCO4)CN1C(=O)[C@@H](NC(=O)OC1CCCC1)C(C)(C)C)C(=O)NS(=O)(=O)C1CC1 (stereo partly shown) [Compound 30ak] | < 30 | – |
| O=C1N[C@]2(C(=O)NS(=O)(=O)C3CC3)C[C@H]2/C=C\CCCCC[C@H](N2CCCS2(=O)=O)C(=O)N2C[C@H](OC(=O)N3Cc4cc5c(cc4C3)OCO5)C[C@@H]12 [Compound 12k] | < 30 | – |
| CC[C@H]1C[C@@]1(NC(=O)C1C[C@@H](OC(=O)N2Cc3ccc4c(c3C2)OCCCO4)CN1C(=O)[C@@H](NC(=O)[C@@H](NC(=O)c1cnccn1)C1CCCCC1)C(C)(C)C)C(=O)NS(=O)(=O)C1CC1 (stereo partly shown) [Compound 30j] | – | < 30 |
| CC(C)(C)OC(=O)N([C@H]1CCCCC/C=C\[C@@H]2C[C@@]2(C(=O)NS(=O)(=O)C2CC2)NC(=O)[C@@H]2C[C@@H](OC(=O)N3Cc4cc5c(cc4C3)OCO5)CN2C1=O)S(C)(=O)=O [Compound 12s] | < 30 | – |
| C=C[C@H]1C[C@@]1(NC(=O)C1C[C@@H](OC(=O)N2Cc3cccc(F)c3C2)CN1C(=O)[C@@H](NC(=O)[C@@H](NC(=O)c1cnccn1)C1CCCCC1)C(C)(C)C)C(=O)NS(=O)(=O)C1CC1 (stereo partly shown) [Compound 30k] | – | < 30 |
| CC(C)(C)OC(=O)N([C@H]1CCCCC/C=C\[C@@H]2C[C@@]2(C(=O)NS(=O)(=O)C2CC2)NC(=O)[C@@H]2C[C@@H](OC(=O)N3Cc4cccc(F)c4C3)CN2C1=O)S(C)(=O)=O [Compound 12u] | < 30 | – |
| C=C[C@H]1C[C@@]1(NC(=O)C1C[C@@H](OC(=O)N2Cc3cc4c(cc3C2)OCO4)CN1C(=O)[C@@H](NC(=O)[C@@H](NC(=O)c1cnccn1)C1CCCCC1)C(C)(C)C)C(=O)NS(=O)(=O)C1CC1 (stereo partly shown) [Compound 30a] | – | < 30 |
| C=C[C@H]1C[C@@]1(NC(=O)C1C[C@@H](OC(=O)N2Cc3ccc4c(c3C2)OCCO4)CN1C(=O)[C@@H](NC(=O)[C@@H](NC(=O)c1cnccn1)C1CCCCC1)C(C)(C)C)C(=O)NS(=O)(=O)C1CC1 (stereo partly shown) [Compound 30d] | – | < 30 |
| C=C[C@H]1C[C@@]1(NC(=O)C1C[C@@H](OC(=O)N2Cc3cc4c(cc3C2)OCO4)CN1C(=O)[C@@H](NC(=O)NC(C)(C)C)C(C)(C)C)C(=O)NS(=O)(=O)C1CC1 (stereo partly shown) [Compound 30ar] | < 30 | – |
| O=C1N[C@]2(C(=O)NS(=O)(=O)C3CC3)C[C@H]2/C=C\CCCCC[C@H](N2CCCS2(=O)=O)C(=O)N2C[C@H](OC(=O)N3Cc4cccc(F)c4C3)C[C@@H]12 [Compound 12m] | 30 to 200 | – |

| SMILES | IC50 [1] [nM] | IC50 [nM] |
| --- | --- | --- |
| CC[C@H]1C[C@@]1(NC(=O)C1C[C@@H](OC(=O)N2Cc3ccc4c(c3C2)OCO4)CN1C(=O)[C@@H](NC(=O)[C@@H](NC(=O)c1cnccn1)C1CCCCC1)C(C)(C)C)C(=O)NS(=O)(=O)C1CC1 (stereo partly shown) [Compound 30f] | – | < 30 |
| CC(C)S(=O)(=O)NC(=O)[C@@]12C[C@H]1/C=C\CCCCCN(C)C(=O)N1CC(OC(=O)N3Cc4cc5c(cc4C3)OCO5)C[C@H]1C(=O)N2 (stereo partly shown) [Compound 27c] | 30 to 200 | – |
| CN1CCCCC/C=C\[C@@H]2C[C@@]2(C(=O)NS(=O)(=O)C2CC2)NC(=O)[C@@H]2CC(OC(=O)N3Cc4cccc(F)c4C3)CN2C1=O (stereo partly shown) [Compound 27-Ref, reference compound] | 30 to 200 | – |
| CC(C)(C)OC(=O)N[C@H]1CCCCC/C=C\[C@@H]2C[C@@]2(C(=O)O)NC(=O)[C@@H]2C[C@@H](OC(=O)N3Cc4cc5c(cc4C3)OCCO5)CN2C1=O [Compound 11c] | > 200 | – |
| CC[C@H]1C[C@@]1(NC(=O)C1C[C@@H](OC(=O)N2Cc3cc4c(cc3C2)OCCCO4)CN1C(=O)[C@@H](NC(=O)[C@@H](NC(=O)OC(C)(C)C)C1CCCCC1)C(C)(C)C)C(=O)NS(=O)(=O)C1CC1 (stereo partly shown) [Compound 30ad] | – | 30 to 200 |
| CC[C@H]1C[C@@]1(NC(=O)C1C[C@@H](OC(=O)N2Cc3cc4c(cc3C2)OCO4)CN1C(=O)[C@@H](NC(=O)[C@@H](NS(=O)(=O)c1ccccc1)C1CCCCC1)C(C)(C)C)C(=O)NS(=O)(=O)C1CC1 (stereo partly shown) [Compound 30r] | < 30 | – |
| CC(C)S(=O)(=O)NC(=O)[C@@]12C[C@H]1/C=C\CCCCC[C@H](NC(=O)OC(C)(C)C)C(=O)N1C[C@H](OC(=O)N3Cc4ccc5c(c4C3)OCO5)C[C@H]1C(=O)N2 [Compound 12e] | < 30 | – |
| CC(C)(C)OC(=O)N([C@H]1CCCCC/C=C\[C@@H]2C[C@@]2(C(=O)NS(=O)(=O)C2CC2)NC(=O)[C@@H]2C[C@@H](OC(=O)N3Cc4ccc5c(c4C3)OCO5)CN2C1=O)S(C)(=O)=O [Compound 12t] | < 30 | – |
| O=C1N[C@]2(C(=O)NS(=O)(=O)C3CC3)C[C@H]2/C=C\CCCCCN(C2CC2)C(=O)N2CC(OC(=O)N3Cc4cccc(F)c4C3)C[C@@H]12 (stereo partly shown) [Compound 27-Ref-2, reference compound] | 30 to 200 | – |
| CC(C)(C)OC(=O)N[C@H]1CCCCC/C=C\[C@@H]2C[C@@]2(C(=O)NS(=O)(=O)C2CC2)NC(=O)[C@@H]2C[C@@H](OC(=O)N3Cc4cc5c(cc4C3)OCCCO5)CN2C1=O [Compound 12p] | < 30 | – |
| CC(C)(C)OC(=O)N[C@H]1CCCCC/C=C\[C@@H]2C[C@@]2(C(=O)NS(=O)(=O)C2CC2)NC(=O)[C@@H]2C[C@@H](OC(=O)N3Cc4ccc5c(c4C3)OCO5)CN2C1=O [Compound 12a] | < 30 | – |
| CC(C)(C)OC(=O)N[C@H]1CCCCC/C=C\[C@@H]2C[C@@]2(C(=O)NS(=O)(=O)C2CC2)NC(=O)[C@@H]2C[C@@H](OC(=O)N3Cc4ccc5c(c4C3)OCCO5)CN2C1=O [Compound 12b] | < 30 | – |
| CC(C)(C)OC(=O)N[C@H]1CCCCC/C=C\[C@@H]2C[C@@]2(C(=O)O)NC(=O)[C@@H]2C[C@@H](OC(=O)N3Cc4cc5c(cc4C3)OCO5)CN2C1=O [Compound 11d] | > 200 | – |
| CCC[C@H](NC(=O)C1C[C@@H](OC(=O)N2Cc3cc4c(cc3C2)OCO4)CN1C(=O)[C@@H](NC(=O)[C@@H](NC(=O)c1cnccn1)C1CCCCC1)C(C)(C)C)C(=O)C(=O)NC1CC1 (stereo partly shown) [Compound 33a] | – | 30 to 200 |
| CN1CCCCC/C=C\[C@@H]2C[C@@]2(C(=O)NS(=O)(=O)C2CC2)NC(=O)[C@@H]2C[C@@H](OC(=O)N3Cc4cc5c(cc4C3)OCO5)CC2C1=O (stereo partly shown) [Compound 21e] | < 30 | – |
